# Reference: patent US20260097029A1, “Tetrahydroquinoline Compounds As Antitumor Agents” (priority 2022, published 2026)
# Where two headings read alike, the source gives them in different places.
# How the values were obtained:
# Type in all cases: cell-based
# [1] = tested on: ALT-positive, telomerase-positive, ALT- and telomerase-positive, and normal cell lines; assay: Proliferation and cell death across panel of ALT-positive, telomerase-positive, ALT- and telomerase-positive and normal cell lines; settings: for toxicity across cell lines (FIG. 5): 0-25 μM, different cell lines
# Experimental: (§1) U2OS cells were treated with compounds 1, 2, 14, and 32 at concentrations of 0, 0.625, 1.25, 2.5, 5, 10, 15, 20 and 25 μM. Cell proliferation (confluency) and cytotoxicity (CellTox™ Green confluency) were assessed using the IncuCyte® live cell imaging platform. Cell death was calculated as a percentage of overall confluency, using CellTox™ Green confluency as a percentage of total cell confluence. Cell toxicity measurements were capped at the time point at which cells reached complete confluency. This was to account for cell death due to over-confluency of cells, rather than as a result of compounds' effects. The same experiments were also performed on a list of ALT-positive, telomerase-positive, ALT- and telomerase-positive, and normal cell lines. For the ALT-positive cell lines GM847, SK—N—FI, HuO9, Saos-2, CAL72, IIICF/c, and HS729 were employed. For the telomerase-positive cells HCT116, HeLa, HT1080, SK—N—Be2, and SK—N-AS, and KELLY were used. For the ALT-positive/telomerase-positive and mortal cell strains GM847 hTERT, MRC-5, and IMR-90 were employed.
# [2] = tested on: U2OS cells; assay: U2OS cell proliferation (confluency), IncuCyte live cell imaging; settings: for IC50: confluency, read-out: IC50 (concentration of drug that inhibits 50% of cell growth)
# Experimental: as §1
# [3] = tested on: U2OS cells; assay: U2OS cytotoxicity / cell death (CellTox Green confluency), IncuCyte; settings: Homo sapiens, read-out: EC50 (concentration that effectively causes 50% of cell death)
# Experimental: as §1
# [4] = biological target: T1, FANCM-BTR interaction (Homo sapiens, UniProt Q8IYD8+Q9H9A7); assay: Co-immunoprecipitation with RMI1 antibody in U2OS cells, western blot; settings: treatment at the IC50 concentration, 72 hours
# T1 construct: endogenous in cells; host or cells: U2OS
# Experimental: To determine whether the compounds disrupt the FANCM-BTR interaction, co-immunoprecipitation experiments using the RMI1 antibody were performed in the presence and absence of compounds 1, 2, 14, 32, and the already reported compound PIP-199 treatments as well as the scambled, siFANCM and DMSO. This method provides information indicating the direct binding of proteins and is highly specific and simple to perform. U2OS cells were seeded at 50% confluency in 150 cm^2 flasks (BD Falcon). After 24 hours, cells were treated with scrambled, siFANCM and DMSO (0.3%, determined by the maximal DMSO concentration present in drugs) treatments, and 2, 14, 32, PIP-199 treatments at their IC50 concentrations. After 72 hours, cells were washed once with warm PBS, trypsinised for 5 minutes at 37° C., resuspended in media and counted using a Beckman Coulter cell counter. Cells were collected in pellets in Protein Lobind tubes (Eppendorf) by centrifugation at 200×g at 4° C. and supernatant was discarded. […]
# The Dynabeads®-Ab-protein complex was washed three times using 200 μL ice cold Lysis Buffer B for each wash. […] The eluates were analysed by western blot and the data was quantitated using ImageJ software (National Institutes of Health). Eluates were expressed as a percentage of their respective lysates to show relative differences between treatments.
SMILES,toxicity across cell lines (FIG. 5) [1],"IC50 ([2]; Homo sapiens, U2OS)",IC50 [2],inhibition of U2OS cell viability ([2]; preliminary cell-based assays),EC50 [3],"comparison of IC50 and EC50 values across the panel of cell lines ([1]; ALT-positive vs telomerase-positive, ALT/telomerase-positive and mortal cell lines)",FANCM levels co-immunoprecipitated with RMI1 [4]
"CCN1CCCc2cc(CN(C3CCCC3)S(=O)(=O)c3cccc([N+](=O)[O-])c3)ccc21 [Compound 1, N-cyclopentyl-N-((1-ethyl-1,2,3,4-tetrahydroquinolin-6-yl)methyl)-3-nitrobenzenesulfon-amide]",concentration-dependent toxicity that is partly selective to the ALT cell lines,–,–,–,–,–,–
"CCN1CCCc2cc(CN(C3CCCC3)S(=O)(=O)c3ccc(CCOC)cc3)ccc21 [Compound 14, N-cyclopentyl-N-((1-ethyl-1,2,3,4-tetrahydroquinolin-6-yl)methyl)-4-(2-methoxy-ethyl)benzenesulfonamide]",concentration-dependent toxicity that is partly selective to the ALT cell lines,–,–,–,–,–,–
"CCN1CCCc2cc(CN(C3CCCC3)S(=O)(=O)c3ccc(NCc4c[nH]cn4)cc3)ccc21 [Compound 32, 4-(((1H-imidazol-4-yl)methyl)amino)-N-cyclopentyl-N-((1-ethyl-1,2,3,4-tetrahydroquinolin-6-yl)methyl)benzenesulfonamide]",–,15.5 µM,15.5 µM,shows inhibition of U2OS cell viability,1.36 µM,selective induction of ALT-cell death,decrease in FANCM levels
